Drawing on ChEMBL document CHEMBL6121023, “Discovery of proteolytically stable monocyte locomotion inhibitory factor peptide through systematic structural optimization” (Eur J Med Chem, 2025), this text covers Activity, Stability and viability for two compounds.

Active and inactive are the calls of the source. The calls are words filed in the database; no cut-off is given here. Residues, ends and D or L forms follow the SMILES beside them. *: point of attachment. Propanoyl(3-(MeO(CH2CH2O)2)) = COCCOCCOCCC(=O)*

For series [1], the system named is Mus musculus. Kind of series: Anti-inflammatory activity against collagenase-induced osteoarthritis C57BL/6J mouse model assessed as improvement in cartilage thickness at 1 mg/kg, ip measured on day 14 by H and E staining based analysis. The format is functional, organism-based. Particulars: time 14.0 day.
Series [2] concerns Mus musculus. Kind of series: Anti-inflammatory activity against collagenase-induced osteoarthritis C57BL/6J mouse model assessed as reduction in mankin score in articular cartilage at 1 mg/kg, ip measured on day 14. To be noted: time 14.0 day. Format: functional, organism-based.
Series [3] has as its system RAW264.7. As to the kind of experiment: Antiinflammatory activity in LPS-induced mouse RAW264.7 cells assessed as inhibition of TNF-alpha expression at 1 microg/ml preincubated with compound for 24 hrs followed by LPS addition for 6 hrs by ELISA method. Particulars: dose 1.0 µg/ml, time 30.0 hrs. The format is functional, cell-based.
Series [4] concerns RAW264.7. As to the kind of experiment: Antiinflammatory activity in LPS-induced mouse RAW264.7 cells assessed as inhibition of IL-1beta expression at 1 microg/ml preincubated with compound for 24 hrs followed by LPS addition for 6 hrs by ELISA method. To be noted: dose 1.0 µg/ml, time 30.0 hrs. Format: functional, cell-based. (An ELISA detects its analyte on a solid surface through an enzyme-linked reagent.)

Series [5] concerns RAW264.7. Kind of series: Antiinflammatory activity in LPS-induced mouse RAW264.7 cells assessed as inhibition of NO generation at 1 microg/ml preincubated with compound for 24 hrs followed by LPS addition for 6 hrs by DAF-FM diacetate probe based analysis. The format is functional, cell-based. To be noted: dose 1.0 µg/ml.
The nature of series [6]: Stability in human serum measured upto 6 hrs by RP-HPLC analysis. Format: ADME, cell-free.
Series [7] is described as follows: Cytotoxicity against mouse RAW264.7 cells assessed as cell viability at 1 microg/ml measured after 24 hrs by CCK-8 assay. Format: toxicity, cell-based. Particulars: at 1 µg/mL, read-out: Activity. A general note: Tetrazolium assays rely on reduction of a dye to a coloured formazan, in cell work by metabolically active cells.
The test system of series [8] is RAW264.7. Kind of series: Antiinflammatory activity in LPS-induced mouse RAW264.7 cells assessed as effect on NO level at 1 microg/ml preincubated with compound for 24 hrs followed by LPS addition for 6 hrs by DAF-FM diacetate probe based analysis. Format: functional, cell-based. To be noted: dose 1.0 µg/ml, time 30.0 hrs.
The subject of series [9] is RAW264.7. Kind of series: Antiinflammatory activity in LPS-induced mouse RAW264.7 cells assessed as effect on TNF-alpha level at 1 microg/ml preincubated with compound for 24 hrs followed by LPS addition for 6 hrs by ELISA method. Particulars: dose 1.0 µg/ml, time 30.0 hrs. Format: functional, cell-based.
Series [10] has as its system RAW264.7. Kind of series: Antiinflammatory activity in LPS-induced mouse RAW264.7 cells assessed as effect on IL-1beta level at 1 microg/ml preincubated with compound for 24 hrs followed by LPS addition for 6 hrs by ELISA method. Format: functional, cell-based. Particulars: dose 1.0 µg/ml, time 30.0 hrs.
For series [11], the system named is RAW264.7. As to the kind of experiment: Antiinflammatory activity in LPS-induced mouse RAW264.7 cells assessed as reduction in IL-1beta activity at 1 microg/ml preincubated with compound for 24 hrs followed by LPS addition for 6 hrs by ELISA method. The format is functional, cell-based. To be noted: dose 1.0 µg/ml, time 30.0 hrs.

`CSCC[C@H](N)C(=O)N[C@@H](CCC(N)=O)C(=O)N[C@@H](CS)C(=O)N[C@@H](CC(N)=O)C(=O)N[C@@H](CO)C(N)=O`: the result in the series on Mus musculus [1], in the series on Mus musculus [2], in the series with RAW264.7 [3], with RAW264.7 [4] and with RAW264.7 [5] was Active. In addition, the Stability result in series [6] was “Stable”. In addition, the viability at 24 h, 1 microg/ml in [7] came to 82.2%.

Turning to `COCCOCCOCCC(=O)N[C@@H](CCSC)C(=O)N[C@@H](CCC(N)=O)C(=O)N[C@@H](CS)C(=O)N[C@@H](CC(N)=O)C(=O)N[C@@H](CO)C(N)=O` ({Propanoyl(3-(MeO(CH2CH2O)2))}-MQCNS-NH2), the outcome in the series with RAW264.7 [8], in the series with RAW264.7 [9], in the series with RAW264.7 [10] and in the series with RAW264.7 [11] was Active. In series [7], the viability at 24 h, 1 microg/ml is approximately 80%.
